Measured values published in PubChem BioAssay AID2060907 (Molecular Pharmacology Branch, DTP, NCI, 2025).
One block for each molecule: values may come before it.

Tested on: 388556-164-R-J1-PDC complex spheroid viability
Assay: Anticancer human tumor 388556-164-R-J1-PDC patient-derived colon adenocarcinoma cell line growth inhibition [RAS]
Conditions: for IC50: curve of first compound; for viability, T/C: stronger effect = lower value
Summary of the method: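 Multi-cell-type spheroids: tumor cells plus HUVEC endothelial cells and mesenchymal stem cells. RAS-pathway inhibitors were combined with targeted agents, each dosed in half-log steps down from clinical Cmax, or from 10 microM when Cmax was unknown.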

[1] = second compound 0.000949 µM, first compound 0.0316 µM
[2] = second compound 0.000949 µM, first compound 0.1 µM
[3] = second compound 0.000949 µM, first compound 0.316 µM
[4] = second compound 0.000949 µM, first compound 1 µM
[5] = second compound 0.003 µM, first compound 0.0316 µM
[6] = second compound 0.003 µM, first compound 0.1 µM
[7] = second compound 0.003 µM, first compound 0.316 µM
[8] = second compound 0.003 µM, first compound 1 µM
[9] = second compound 0.00949 µM, first compound 0.0316 µM
[10] = second compound 0.00949 µM, first compound 0.1 µM
[11] = second compound 0.00949 µM, first compound 0.316 µM
[12] = second compound 0.00949 µM, first compound 1 µM
[13] = second compound 0.03 µM, first compound 0.0316 µM
[14] = second compound 0.03 µM, first compound 0.1 µM
[15] = second compound 0.03 µM, first compound 0.316 µM
[16] = second compound 0.03 µM, first compound 1 µM
[17] = second compound 0.0949 µM, first compound 0.0316 µM
[18] = second compound 0.0949 µM, first compound 0.1 µM
[19] = second compound 0.0949 µM, first compound 0.316 µM
[20] = second compound 0.0949 µM, first compound 1 µM
[21] = second compound 0.3 µM, first compound 0.0316 µM
[22] = second compound 0.3 µM, first compound 0.1 µM
[23] = second compound 0.3 µM, first compound 0.316 µM
[24] = second compound 0.3 µM, first compound 1 µM
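Also: spheroids exposed to compound for 7 days before readout.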
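For viability, T/C in this document: 100% = DMSO vehicle control luminescence.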

IC50 (second compound 0.000949 µM): 106 nM
IC50 (second compound 0.003 µM): 116 nM
IC50 (second compound 0.00949 µM): 47.6 nM
IC50 (second compound 0.03 µM): < 31.6 nM
IC50 (second compound 0.0949 µM): < 31.6 nM
IC50 (second compound 0.3 µM): < 31.6 nM
SMILES: NC1c2ccccc2OC12CCN(c1cnc3c(N4CCCc5ncccc54)n[nH]c3n1)CC2 (centres undefined) + CCn1c(-c2cc(N3CCN(C)CC3)cnc2C(C)OC)c2c3cc(ccc31)-c1csc(n1)CC(NC(=O)C1CC1C)C(=O)N1CCCC(N1)C(=O)OCC(C)(C)C2
viability, T/C [1]: 64.5%
viability, T/C [2]: 50.1%
viability, T/C [3]: 39%
viability, T/C [4]: 39.8%
viability, T/C (second compound 0.000949 µM, first compound 3.16 µM): 30.3%
viability, T/C (second compound 0.000949 µM, first compound 10 µM): 29.1%
viability, T/C [5]: 63%
viability, T/C [6]: 52%
viability, T/C [7]: 39.2%
viability, T/C [8]: 30.3%
viability, T/C (second compound 0.003 µM, first compound 3.16 µM): 27.7%
viability, T/C (second compound 0.003 µM, first compound 10 µM): 22.6%
viability, T/C [9]: 54.3%
viability, T/C [10]: 43.1%
viability, T/C [11]: 30.6%
viability, T/C [12]: 24.3%
viability, T/C (second compound 0.00949 µM, first compound 3.16 µM): 23.8%
viability, T/C (second compound 0.00949 µM, first compound 10 µM): 21.9%
viability, T/C [13]: 35.7%
viability, T/C [14]: 29.9%
viability, T/C [15]: 26.3%
viability, T/C [16]: 22.5%
viability, T/C (second compound 0.03 µM, first compound 3.16 µM): 20.5%
viability, T/C (second compound 0.03 µM, first compound 10 µM): 18.6%
viability, T/C [17]: 32.3%
viability, T/C [18]: 27.8%
viability, T/C [19]: 22.5%
viability, T/C [20]: 20.8%
viability, T/C (second compound 0.0949 µM, first compound 3.16 µM): 22.4%
viability, T/C (second compound 0.0949 µM, first compound 10 µM): 19.1%
viability, T/C [21]: 27.5%
viability, T/C [22]: 23.8%
viability, T/C [23]: 23.3%
viability, T/C [24]: 21.3%
viability, T/C (second compound 0.3 µM, first compound 3.16 µM): 22.2%
viability, T/C (second compound 0.3 µM, first compound 10 µM): 21.9%

IC50 (second compound 0.000949 µM): > 1000 nM
IC50 (second compound 0.003 µM): > 1000 nM
IC50 (second compound 0.00949 µM): > 1000 nM
IC50 (second compound 0.03 µM): 90.2 nM
IC50 (second compound 0.0949 µM): < 3.16 nM
IC50 (second compound 0.3 µM): < 3.16 nM
SMILES: Nc1ccn(C2OC(CO)C(O)C2(F)F)c(=O)n1 (centres undefined) + CCn1c(-c2cc(N3CCN(C)CC3)cnc2C(C)OC)c2c3cc(ccc31)-c1csc(n1)CC(NC(=O)C1CC1C)C(=O)N1CCCC(N1)C(=O)OCC(C)(C)C2
viability, T/C (second compound 0.000949 µM, first compound 0.00316 µM): 88.9%
viability, T/C (second compound 0.000949 µM, first compound 0.01 µM): 93.5%
viability, T/C [1]: 76.6%
viability, T/C [2]: 73.6%
viability, T/C [3]: 67.1%
viability, T/C [4]: 71.1%
viability, T/C (second compound 0.003 µM, first compound 0.00316 µM): 101%
viability, T/C (second compound 0.003 µM, first compound 0.01 µM): 84%
viability, T/C [5]: 70%
viability, T/C [6]: 65%
viability, T/C [7]: 65.3%
viability, T/C [8]: 61.8%
viability, T/C (second compound 0.00949 µM, first compound 0.00316 µM): 80.1%
viability, T/C (second compound 0.00949 µM, first compound 0.01 µM): 62.9%
viability, T/C [9]: 60.7%
viability, T/C [10]: 57.8%
viability, T/C [11]: 56.9%
viability, T/C [12]: 52.7%
viability, T/C (second compound 0.03 µM, first compound 0.00316 µM): 72%
viability, T/C (second compound 0.03 µM, first compound 0.01 µM): 53.4%
viability, T/C [13]: 56.5%
viability, T/C [14]: 47.1%
viability, T/C [15]: 52.3%
viability, T/C [16]: 46.1%
viability, T/C (second compound 0.0949 µM, first compound 0.00316 µM): 42.1%
viability, T/C (second compound 0.0949 µM, first compound 0.01 µM): 46.2%
viability, T/C [17]: 40.6%
viability, T/C [18]: 38.6%
viability, T/C [19]: 40.6%
viability, T/C [20]: 36.4%
viability, T/C (second compound 0.3 µM, first compound 0.00316 µM): 33.9%
viability, T/C (second compound 0.3 µM, first compound 0.01 µM): 35%
viability, T/C [21]: 32.5%
viability, T/C [22]: 30.1%
viability, T/C [23]: 31.4%
viability, T/C [24]: 28.8%
